# Laboratory results: patent US6159988A, “Arylcycloalkyl derivatives, their production and their use” (Hoeschst Aktiengesellschaft, priority 1992, dated 2000)
# Counter-ions that a name gives are not always drawn.
# Experiments:
# [1] = tested on: adjuvant arthritis in rats; test: Adjuvant-induced arthritis in rats; assay type: in vivo, rat (female Wistar); conditions: 30 mg/kg orally once every day for 12 days, compared to control
# IL-1 = IL-1 release inhibition (Table 2); assay type: cell-based, human
# Procedure: 10 ml of human blood were carefully drawn from the antecubital vein using a syringe containing 1 ml of a solution of 3.8% sodium citrate. After dilution with 10 ml PM 16 (Serva, Heidelberg, FRG) and underlayering with 15 ml Lymphoprep® (Molter GmbH), the sample was centrifuged at 400×g for 40 min at 20° C. The mononuclear cells forming a white ring between lymphoprep and plasma were carefully aspirated by a syringe, diluted 1:1 with PM 16 and centrifuged again at 400×g for 10 min. […] was washed with 10 ml RPMI 1640 (Gibco, Berlin, FRG), containing additionally 300 mg/l L-glutamine, 25 mmol/l […] HEPES, 100 μg/ml streptomycin and 100 μg/ml penicillin. Finally, using a Coulter counter IT, the cell suspension was adjusted to 5×10^6 cells/ml. The cells consist of approx. 90% lymphocytes and 10% monocytes.
# 10 μl DMSO/water (1:10, v/v), containing the test compound, was added to 480 μl of a suspension, containing 5×10^6 mononuclear cells. The synthesis of IL-1 was stimulated by the addition of 10 μl DSMO/water (1:10, v/v), containing 0,5 μg LPS (Salmonella abortus equi, Sigma). After incubation at 37° C. for 18 hours, the samples were cooled to 0° C. and centrifuged for 1 min. in a table centrifuge. 25 μl aliquots of the supernatant were assayed for IL-1 alpha activity using a commercially available 125-J-IL-1-alpha radioimmunoassay Kit (Amersham/UK), and for IL-1 beta in a similar way using the specific test kit. Control experiments were performed as described without test compound, or with cycloheximide as a test compound.
# [2] = tested on: Cotton Pellet Granuloma in Rats; test: Inhibition of carrageenin cotton pellet granuloma in rats; assay type: in vivo, rat (Wistar); conditions: 30 mg/kg, p.o. × 5
# Procedure: The implantation of carrageenin impregnated cotton pellets results in production of large, well-defined granuloma which are easily dissected. The potency of the compounds are assessed by measuring the reduction in granuloma tissue formation.
# Cotton wool pellets weighing 40 mg were used for sterilization.
# Pellets were dried overnight under a lamp. The pellets in the weight range of 42-44 mg were selected.
# Rats (in groups of 6, male or female, Charles River, Wistar, weighing 140-150 g) were anaesthetized with ether. The back was shaved and cleaned; swabbed with alcohol and one centimeter incision was made in the lower midback. A small channel was made bilaterally using a blunt forceps and one cotton pellet placed in each channel. Air from the incision was removed and the wound was stitched. […] Three hours after the administration of the last dose on day 7, animals were sacrificed. The pellets were removed by cutting the skin along the dorsal midline and peeling the skin away from the bodywall in both lateral directions. The pellets were weighed and then placed in drying oven at 140° C. overnight. The dry weights were then recorded and the amount of granuloma was assessed by subtracting the original pellet weight from wet weights and dry weights. The data was evaluated using the difference of left and right weights (cf. Table 4).
# [3] = tested on: experimental allergic encephalomyelitis (EAE) in guinea pigs; test: Experimental allergic encephalomyelitis (EAE) in guinea pigs; assay type: in vivo, guinea pig; conditions: 100 mg/kg p.o. once daily for 10 days
# Text: This method permits the evaluation of the potential of the test compound in preventing the development of an autoimmune disorder leading to demyelination in the guinea pigs which can be equated to multiple sclerosis disease in humans. EAE is a reproducible chronic inflammatory autoimmune disease of the central nervous system in which an animal is immunized with either a homologous or heterologous extract of the whole brain and spinal cord, which contains the basic myelin protein together with Freund's Complete Adjuvant (FCA). A pathological condition would set in during ten to twenty days following immunization, which is characterized by weight loss, abnormal gait, mild to severe ataxia, paraparesis and moribund state leading to death. The potential of the test compounds to prevent this autoimmune condition was evaluated by observing the severity of the disease and mortality in comparison with untreated and hydrocortisone (standard drug) treated animals.
# Guinea pigs (200-300 g) were randomly distributed into groups of 10 each after receiving 0.075 ml of it brain and spinal cord extract in FCA intradermally on the back and 0.050 ml intrapedally in one hind paw. Compound 9 of Table 2 was administered orally at 3 mg/kg once daily for 10 days. The standard compound was administered 100 mg/kg p.o. once daily for 10 days. The weights of the animals were noted every day. Eight days after the induction of the disease, the animals were rated regularly for the severity of the disease and mortality was monitored.
# [4] = Homo sapiens, read-out: IL-1 Rel. Inhib.
structure (smiles),measurement,setting,value
COc1cc(OC)c([C@@H]2CCCC[C@H]2O)c(O)c1C(=O)/C=C/c1cccc(Br)c1 (relative stereo) [Compound 6 of Table 1],reduction in the uninjected paw volume,[1],very slight reduction
"COc1cc(OC)c([C@@H]2CCCC[C@H]2O)c(O)c1C(=O)/C=C/c1cc(C)ccc1C (relative stereo) [Compound 21 of Table 2, trans-(+/-)-2-[4,6-Dimethoxy-2-hydroxy-3-(3-(2,5-dimethylphenyl))prop-2-(E)-enoyl]phenylcyclohexanol monohydrate]",inhibition at 10 µM,IL-1; [4],96%
"COc1cc(O)c(C(=O)/C=C/c2cccc(Br)c2)c(OC)c1[C@@H]1CCCC[C@H]1O (racemic) [Compound 17 of Table 2, trans-(+/-)-2-[2,6-Dimethoxy-4-hydroxy-3-(3-(3-bromophenyl))prop-2-(E)-enoyl]phenylcyclohexanol]",IL-1 Rel. Inhib.,IL-1; 10.8 μM,71%
COc1cc(OC)c([C@@H]2CCCC[C@H]2O)c(O)c1C(=O)CCc1cccc(Br)c1 (relative stereo) [Compound 12 of Table 2],inhibition at 10.5 µM,"IL-1; Homo sapiens, 10.5 μM, read-out: IL-1 Rel. Inhib.",26%
"C[C@]12CCC(=O)C=C1CC[C@@H]1[C@@H]2[C@@H](O)C[C@@]2(C)[C@H]1CC[C@]2(O)C(=O)CO [Hydrocortisone, reference compound]","% Inhibition of granuloma, Dry wt.",[2],37.5%
same,"% Inhibition of granuloma, Wet wt.",[2],20.5%
same,reduction in the mortality,[3],21%
"COc1cc(OC)c([C@@H]2CCCC[C@H]2O)c(O)c1C(=O)/C=C/c1cccc(Br)c1 [Compound 14 of Table 2, trans-(-)-2-[4,6-Dimethoxy-2-hydroxy-3-(3-(3-bromophenyl))prop-2-(E)-enoyl]phenylcyclohexanol]",inhibition at 0.3 µM,IL-1; [4],50%
"COc1cc(OC)c([C@@H]2CCCC[C@H]2OC(=O)CN)c(O)c1C(=O)/C=C/c1cccc(Br)c1 [Compound 5 of Table 2, trans-(-)-2-[4,6-Dimethoxy-2-hydroxy-3-(3-(3-bromophenyl)prop-2-(E)-enoyl)phenyl]cyclohexyl-2-amino acetate hydrochloride monohydrate]",inhibition at 1 µM,IL-1; [4],95%
"COc1ccc(C(=O)/C=C/c2cccc(Br)c2)c(O)c1[C@@H]1CCCC[C@H]1O (racemic) [Compound 16 of Table 2, trans-(+/-)-2-[6-Methoxy-2-hydroxy-3-(3-(3-bromophenyl))prop-2-(E)-enoyl]phenylcyclohexanol]",IL-1 Rel. Inhib.,IL-1; 11.6 μM,81%
"COc1cc(OC)c(C2CCCCC2OC(=O)[C@H](C)N)c(O)c1C(=O)/C=C/c1cccc(Br)c1 (mixture of isomers) [Compound 7 of Table 2, trans-(+/-)-2-[4,6-Dimethoxy-2-hydroxy-3-(3-(3-bromophenyl)prop-2-(E)-enoyl)phenyl]cyclohexyl-2-(S)-amino propanoate]",inhibition at 1 µM,IL-1; [4],35%
COc1cc(OC)c([C@@H]2CCCC[C@H]2OC(C)=O)c(O)c1C(=O)/C=C/c1cccc(Br)c1 (relative stereo) [Compound 1 of Table 2],inhibition at 10 µM,IL-1; [4],41%
"COc1ccc([C@@H]2CCCC[C@H]2O)c(O)c1C(=O)/C=C/c1cccc(Br)c1.COc1ccc([C@@H]2CCCC[C@H]2O)c(O)c1C(=O)/C=C/c1cccc(Br)c1.O (racemic) [Compound 18 of Table 2, trans-(+/-)-2-[2-Hydroxy-4-methoxy-3-(3-(3-bromophenyl))prop-2-(E)-enoyl)phenylcyclohexanol hemihydrate]",IL-1 Rel. Inhib.,IL-1; 5 μM,71%
COc1cc(OC)c(C2CCCCC2)c(O)c1C(=O)/C=C/c1ccc(Cl)cc1 [Compound 22 of Table 2],inhibition at 12 µM,"IL-1; Homo sapiens, 12 μM, read-out: IL-1 Rel. Inhib.",30%
"COc1cc(OC)c([C@H]2CCCC[C@H]2O)c(O)c1C(=O)/C=C/c1cccc(Br)c1 (relative stereo) [Compound 11 of Table 2, cis-(+/-)-2-[4,6-Dimethoxy-2-hydroxy-3-(3-(3-bromophenyl))prop-2-(E)-enoyl]phenylcyclohexanol]",inhibition at 10.8 µM,"IL-1; Homo sapiens, 10.8 μM, read-out: IL-1 Rel. Inhib.",90%
COc1cc(OC)c([C@@H]2CCCC[C@H]2OC(=O)CN(C)C)c(O)c1C(=O)/C=C/c1cccc(Br)c1 (relative stereo) [Compound 2 of Table 2],inhibition at 17 µM,IL-1; [4],50%
"COc1cc(OC)c([C@H]2CCCC[C@@H]2O)c(O)c1C(=O)/C=C/c1cccc(Br)c1 [Compound 15 of Table 2, trans-(+)-2-[4,6-Dimethoxy-2-hydroxy-3-(3-(3-bromophenyl))prop-2-(E)-enoyl]phenylcyclohexanol]",inhibition at 0.3 µM,IL-1; [4],50%
COc1cc(OC)c([C@@H]2CCCC[C@H]2O)c(O)c1C(=O)/C=C/c1cccc(N)c1 (relative stereo) [Compound 28 of Table 2],inhibition at 1 µM,IL-1; [4],33%
"COc1ccc(CCC(=O)c2c(OC)cc(OC)c([C@@H]3CCCC[C@H]3OC(=O)CN)c2O)cc1OC (relative stereo) [Compound 19 of Table 2, trans-(+/-)-1-[4,6-Dimethoxy-2-hydroxy-3-(2-(β-amino)acetoxy)cyclohexyl]phenyl-(3-(3,4-dimethoxy)phenyl)propanone hydrochloride monohydrate]",inhibition at 10 µM,IL-1; [4],51%
COc1cc(OC)c([C@@H]2CCCC[C@H]2O)c(O)c1C(=O)/C=C/c1cccc(C)c1 (relative stereo) [Compound 20 of Table 2],inhibition at 10 µM,IL-1; [4],49%
"COc1cc(OC)c([C@@H]2CCCC[C@H]2OC(=O)CN)c(O)c1C(=O)/C=C/c1cccc(Br)c1 (relative stereo) [Compound 3 of Table 2, trans-(+/-)-2-[4,6-Dimethoxy-2-hydroxy-3-(3-(3-bromophenyl)prop-2-(E)-enoyl)phenyl]cyclohexyl-2-amino acetate hydrochloride monohydrate]",inhibition at 17 µM,IL-1; [4],63%
"COc1cc(OC)c([C@H]2CCCC[C@@H]2OC(=O)CN)c(O)c1C(=O)/C=C/c1cccc(Br)c1 [Compound 6 of Table 2, trans-(+)-2-[4,6-Dimethoxy-2-hydroxy-3-(3-(3-bromophenyl)prop-2-(E)-enoyl)phenyl]cyclohexyl-2-amino acetate hydrochloride monohydrate]",inhibition at 1 µM,IL-1; [4],88%
COc1cc(OC)c([C@@H]2CCCC[C@H]2OC(=O)CN2CCCCC2)c(O)c1C(=O)/C=C/c1cccc(Br)c1 (relative stereo) [Compound 4 of Table 2],inhibition at 16 µM,"IL-1; Homo sapiens, 16 μM, read-out: IL-1 Rel. Inhib.",43%
COc1cc(/C=C/C(=O)c2c(OC)cc(OC)c([C@@H]3CCCC[C@H]3O)c2O)cc(Br)c1OC (relative stereo) [Compound 26 of Table 2],inhibition at 9.5 µM,"IL-1; Homo sapiens, 9.5 μM, read-out: IL-1 Rel. Inhib.",50%
